The text below walks through data of publication PMC3832475, “Discovery of Dihydrochalcone as Potential Lead for Alzheimer’s Disease: In Silico and In Vitro Study” (PLoS ONE, 2013).

For the assay, the target named is T1, amyloid beta (Aβ40) (Homo sapiens, UniProt P05067).
T1 construct: gene APP; Aβ40 peptide (40 amino acids)
Description: ThT fluorescence fibrillization assay with purified Aβ[…]), end-point confirmed by TEM. The assay is classed as biochemical.

T1 sequence (P05067 672-711 limits assumed): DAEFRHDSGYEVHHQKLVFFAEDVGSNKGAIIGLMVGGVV

One may read the IC50 as the midpoint of a concentration-inhibition curve. The low end stands for greater potency in that assay, the high end for weaker potency in that assay. In turn, `O=C(CCc1ccccc1)c1ccccc1` [Dihydrochalcone] yielded an IC50 of around 2460 nM.
